Results published in patent US20140037659A1 (Yissum Research Development Company of the Hebrew …, priority 2011, published 2014).

How the values were obtained:
MDSCs [1] = assay: 5FU treatment of BCG-treated mice displaying chronic inflammation; type: in vivo
Experimental: Normal C57B116 mice repeatedly exposed to heat-killed BCG were used as the mouse model for chronic inflammation^1. BCG was administered by three subcutaneous injections at 1 wk intervals, 100 μg per animal/dose; the first two doses were administrated with IFA (Incomplete Freund's adjuvant), and subsequent injections included heat-killed BCG in PBS. Unless stated otherwise, splenocytes were collected 2-3 days after the last injection. Control mice remained untreated. For experiments with chicken OVA (Sigma) as antigen, the same protocol was maintained: For a Th1 response BCG was administered as above but with OVA. For a Th2 response, the first and second injections were with 100 μg OVA adsorbed to Al(OH)3 (alum; Thermo), and the third injection was with 100 μg OVA in PBS. Experimental groups included at least three mice, and each experiment was repeated at least three times.
BCG-treated mice received three i.p. injections of 5-fluorouracil (5FU); The first 5FU injection (1 mg/mouse) was given at the day of the second BCG treatment and the second 5FU injection was given four days later. The third 5FU injection (0.5 mg/mouse) was given at the day of the third BCG treatment.
All the antibodies were purchased from Biolegend.

MDSCs [2] = settings: recently demonstrated, reference 30; cited from earlier work
[3] = target: T1, SNX9 (sorting nexin 9 protein), endogenous in EL4 T cell line (Mus musculus, UniProt Q91VH2 1-595); assay: immunoprecipitation of EL4 lysate with anti-CD3δ, immunoblot for SNX9
T1 construct: Endogenous protein in a Triton X-100 lysate of EL4 T cells; also called sorting nexin-9 [Mus musculus]

[4] = splenic cells of BCG+5FU treated mice vs BCG treated mice, immunoblotting, FIG. 14A

T1 sequence (Q91VH2 whole entry): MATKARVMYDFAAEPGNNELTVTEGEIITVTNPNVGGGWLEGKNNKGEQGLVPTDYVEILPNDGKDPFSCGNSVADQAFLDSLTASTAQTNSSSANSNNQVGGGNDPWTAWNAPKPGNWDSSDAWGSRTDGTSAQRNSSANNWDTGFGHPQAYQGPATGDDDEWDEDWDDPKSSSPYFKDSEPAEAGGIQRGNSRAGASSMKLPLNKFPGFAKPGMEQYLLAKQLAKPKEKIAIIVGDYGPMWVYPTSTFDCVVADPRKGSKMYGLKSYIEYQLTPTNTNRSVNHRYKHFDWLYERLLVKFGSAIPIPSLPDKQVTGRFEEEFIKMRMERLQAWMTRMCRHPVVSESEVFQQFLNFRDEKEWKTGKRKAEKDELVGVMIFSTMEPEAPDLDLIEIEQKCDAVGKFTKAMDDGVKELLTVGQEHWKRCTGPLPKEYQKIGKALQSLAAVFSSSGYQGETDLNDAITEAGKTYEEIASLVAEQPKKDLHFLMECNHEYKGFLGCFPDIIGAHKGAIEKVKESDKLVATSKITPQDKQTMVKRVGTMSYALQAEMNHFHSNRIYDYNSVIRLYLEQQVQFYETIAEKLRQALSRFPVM

In the case of `O=c1[nH]cc(F)c(=O)[nH]1` [5FU, 5-fluorouracil], the “MDSCs levels (Gr1+Mac1+ double-positive cells)” value (MDSCs [1]; FACS of cells from BCG+5FU treated mice, FIG. 14B, C) is reported as “Eliminates MDSCs”, the SNX9 expression levels (MDSCs [1]; [4]) is reported as “recovery” and the “ζ chain expression levels” value (MDSCs [1]; [4]) is reported as “recovery”. For the same molecule, the “effect on MDSCs” value (MDSCs [2]) was “cytotoxic effect on MDSCs”.

B1: CD3δ of EL4 T cell line (receptor, UniProt P04235 22-173, looked up)
chain: FKIQVTEYEDKVFVTCNTSVMHLDGTVEGWFAKNKTLNLGKGVLDPRGIYLCNGTEQLAKVVSSVQVHYRMCQNCVELDSGTMAGVIFIDLIATLLLALGVYCFAGHETGRPSGAAEVQALLKNEQLYQPLRDREDTQYSRLGGNWPRNKKS
notes: Immunoprecipitated from EL4 lysate with anti-CD3δ antibody
B1: no binding [3].
